According to patent US11319310B2, “Heterocyclyl-substituted oxadiazolopyridine derivatives for use as ghrelin O-acyl transferase (GOAT) inhibitors” (Boehringer Ingelheim International GmbH, priority 2018, dated 2022):

Biological target: T1, human GOAT (Homo sapiens, UniProt Q96T53)
T1 construct: expressed in transfected cells; host or cells: HEK293 (Hek293 hGOAT/PPGhrl Clone #1B8), stably transfected
T1 sequence (Q96T53 1-435): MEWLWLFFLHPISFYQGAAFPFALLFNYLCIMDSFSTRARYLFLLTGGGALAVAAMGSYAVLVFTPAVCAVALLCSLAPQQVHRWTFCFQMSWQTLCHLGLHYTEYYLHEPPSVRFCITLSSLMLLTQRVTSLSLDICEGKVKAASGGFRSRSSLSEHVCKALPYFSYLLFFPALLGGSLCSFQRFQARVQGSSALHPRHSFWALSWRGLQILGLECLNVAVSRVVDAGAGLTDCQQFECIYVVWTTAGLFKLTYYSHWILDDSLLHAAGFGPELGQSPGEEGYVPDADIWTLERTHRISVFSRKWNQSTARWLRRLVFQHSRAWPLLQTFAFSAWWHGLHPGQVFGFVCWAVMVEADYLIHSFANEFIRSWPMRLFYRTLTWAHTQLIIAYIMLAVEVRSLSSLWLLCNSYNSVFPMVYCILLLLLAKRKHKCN
Assay: Determination of hGOAT activity in HEK293 cells after incubation with test compound (acyl-ghrelin ELISA)
Assay type: cell-based
Settings: HEK293 cells stably transfected with preproghrelin and human GOAT; octanoate-BSA 100 μM, 5 hours incubation; acyl-ghrelin in medium by ELISA; 8 compound concentrations
Description: Determination of hGOAT Activity in HEK293 Cells after Incubation with Test Compound
HEK293 cells stably transfected with two expression vectors, one coding for preproghrelin cDNA and a second for the expression of human GOATcDNA are used as a cellular model. After feeding the cells with octanoic acid for 5 hours, acyl-ghrelin is measured in cell culture medium by an ELISA procedure.
Cellline: Hek293 hGOAT/PPGhrl Clone #1B8 Sodium octanoate, Sigma, Cat.-No. C5038
BD Poly-D-Lysin 384-well Plates, black-clear polystyrene BD Bioscience Cat.-No. […] ELISA human acylated Ghrelin Kit purchased from Bertin Pharman (detailed composition of buffers e.g. wash-puffer, ELISA buffer not known) All further reagents used were of highest analytical grade available.
Cells are plated with a density of 5000 cells/well in 384-well poly-D-lysin plates and incubated for 1 day at 37° C., 5% CO2 in DMEM medium, 10% FCS, 1×NEAA, Puromycin (0.5 μg/ml) and G418 (1 mg/ml). Then the medium is changed to a identical medium without FCS and containing Octanoate-BSA (final concentration 100 μM each) and compound in DMSO (final DMSO concentration 0.3%). After incubation for 5 hours acylghrelin in the medium is measured by ELISA.
The medium sample is diluted 1:25 in Elisa buffer, a 25 μl aliquot is transferred to a 384-well ELISA plate previously washed 4 times with 100 μL wash buffer, and 25 μl tracer-solution is added. After incubation overnight (˜20 h) at 4° C. temperature the plate is washed 4 times with 100 μl wash-buffer per well. Finally 50 μl Ellman's reagent is added to each well and the plate is incubated in the dark for 20 minutes. The absorbance is measured at 405 nm in an Envision multilabel reader and the amount of acylated ghrelin is calculated according to a acylated ghrelin standard curve provided in the same plate.
The analysis of the data is performed by calculation of the percentage of acyl-ghrelin produced in the presence of test compound compared to the amount of acyl-ghrelin produced in the vehicle control samples. An inhibitor of the GOAT enzyme will give values between 100% CTL (no inhibition) and 0% CTL (complete inhibition).
IC50 values are calculated with Assay Explorer or other suited software based on curve fitting of results of 8 different compound concentrations.

IC50 [nM] | Compound
2.2 | Cc1nc2nonc2c(N)c1CN1CCC(F)(F)CC1 [Example 3.2]
5.2 | Cc1nc2nonc2c(N)c1CN1CCN(S(C)(=O)=O)CC1 [Example 1.13]
4.1 | Cc1nc2nonc2c(N)c1CN1CCC(S(C)(=O)=O)CC1 [Example 1.3]
1.9 | Cc1nc2nonc2c(N)c1CN1CC(C(F)(F)F)C1 [Example 1.6]
1.7 | Cc1nc2nonc2c(N)c1CN1CCCC(C(F)(F)F)C1 (centres unmarked) [Example 3.3]
7 | Cc1nc2nonc2c(N)c1CN1CCC(F)(F)C1 [Example 1.12]
4.2 | Cc1nc2nonc2c(N)c1CN1CCN(C(=O)C2CC2)CC1 [Example 2.3]
0.64 | Cc1nc2nonc2c(N)c1CN1CCN(S(=O)(=O)C(F)(F)F)CC1 [Example 2.2]
5.7 | Cc1nc2nonc2c(N)c1CN1CCN(C(=O)C(F)(F)F)CC1 [Example 2.1, 1-[4-({7-Amino-5-methyl-[1,2,5]oxadiazolo[3,4-b]pyridin-6-yl}methyl)piperazin-1-yl]-2,2,2-trifluoroethan-1-one]
6.5 | COC(=O)N1CCN(Cc2c(C)nc3nonc3c2N)CC1 [Example 2.5]
0.43 | Cc1nc2nonc2c(N)c1CN1CCN(C(=O)OC(C)(C)C)CC1 [Example 1.5, tert-Butyl 4-({7-amino-5-methyl-[1,2,5]oxadiazolo[3,4-b]pyridin-6-yl}methyl)piperazine-1-carboxylate]
7.4 | Cc1nc2nonc2c(N)c1CN1CCCC(F)(F)C1 [Example 3.1, 6-(3,3-Difluoro-piperidin-1-ylmethyl)-5-methyl-[1,2,5]oxadiazolo[3,4-b]pyridin-7-ylamine]
4 | Cc1nc2nonc2c(N)c1CN1CCOC(C)(c2ccc(F)cc2)C1 (centres unmarked) [Example 3.5]
5 | Cc1nc2nonc2c(N)c1CN1CCC(C(C)(C)O)C1 (centres unmarked) [Example 1.11]
1.3 | Cc1nc2nonc2c(N)c1CN1CCC(C(F)F)CC1 [Example 1.1, 6-{[4-(Difluoromethyl)piperidin-1-yl]methyl}-5-methyl-[1,2,5]oxadiazolo[3,4-b]pyridin-7-amine]
1.3 | Cc1nc2nonc2c(N)c1CN1CCC(C(F)(F)F)CC1 [Example 3.4]
1.4 | Cc1nc2nonc2c(N)c1CN1CCC(c2cccc(C(F)(F)F)c2)C1 (centres unmarked) [Example 1.8]
1.8 | Cc1nc2nonc2c(N)c1CN1CCN(S(=O)(=O)C2CC2)CC1 [Example 2.4]
0.56 | Cc1nc2nonc2c(N)c1CN1CCC(OC(F)(F)F)CC1 [Example 1.4]
0.49 | Cc1nc2nonc2c(N)c1CN1CCN(S(=O)(=O)C(F)F)CC1 [Example 2.6]
1.1 | Cc1nc2nonc2c(N)c1CN1CCC(O)(C(F)(F)F)C1 (centres unmarked) [Example 1.9]
3.6 | Cc1nc2nonc2c(N)c1CN1CCC(C#N)CC1 [Example 1.2]
0.56 | Cc1nc2nonc2c(N)c1CN1CCC(C(F)(F)F)C1 (centres unmarked) [Example 1.7]
